The text below walks through data of PubChem BioAssay AID602121 (Johns Hopkins Ion Channel Center, 2011).

The experiment deals with Potassium voltage-gated channel subfamily KQT member 1 (Homo sapiens) (UniProt P51787). The experiment is described as follows: KCNQ1 potassium current enhancement – automated patch clamp, CHO cells, set 2, SAR follow-up (AID 602121). To be noted: for current activation: at 30 µM (top of the series). Background: Patch clamp records ionic current or voltage across a cell membrane.

Active and inactive are the calls of the source.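 How the source made its calls: active means opens the KCNQ1 potassium channel at some tested dose and gives a fittable dose response curve; inactive means the rest.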

Sequence of Potassium voltage-gated channel subfamily KQT member 1 (Homo sapiens) (P51787 whole entry, looked up): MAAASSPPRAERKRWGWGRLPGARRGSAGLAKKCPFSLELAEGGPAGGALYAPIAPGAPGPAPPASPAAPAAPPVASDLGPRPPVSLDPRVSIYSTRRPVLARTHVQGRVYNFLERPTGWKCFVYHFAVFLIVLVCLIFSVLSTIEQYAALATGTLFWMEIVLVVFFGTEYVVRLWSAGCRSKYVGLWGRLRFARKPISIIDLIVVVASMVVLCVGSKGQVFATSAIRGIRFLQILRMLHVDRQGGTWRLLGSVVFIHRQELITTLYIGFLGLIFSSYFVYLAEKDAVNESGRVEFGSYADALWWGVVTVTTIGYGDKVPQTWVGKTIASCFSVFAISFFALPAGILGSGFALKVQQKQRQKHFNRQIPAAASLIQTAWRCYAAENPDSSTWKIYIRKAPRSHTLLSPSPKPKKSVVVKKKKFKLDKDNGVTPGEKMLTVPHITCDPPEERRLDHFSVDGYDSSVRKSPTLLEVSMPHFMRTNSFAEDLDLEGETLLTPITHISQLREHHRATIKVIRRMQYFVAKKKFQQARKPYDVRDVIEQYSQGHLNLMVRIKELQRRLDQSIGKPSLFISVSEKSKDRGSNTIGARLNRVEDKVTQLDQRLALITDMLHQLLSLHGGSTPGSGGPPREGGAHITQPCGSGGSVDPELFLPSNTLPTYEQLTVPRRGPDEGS

Regarding `CCc1cccc(NC(=O)[C@H]2CCCCN2S(=O)(=O)c2ccc(C)cc2)n1`, the current activation result was “inactive”.

With `Cc1ccc(S(=O)(=O)N2CCCC[C@@H]2C(=O)Nc2ccc(F)c(C)c2)cc1`, the EC50 (in general, the concentration at which the effect is half-maximal) was 3.35 µM.

For `Cc1ccc(S(=O)(=O)N2CCCC[C@@H]2C(=O)Nc2ccccc2)cc1`, the current activation result is “inactive”.

For `Cc1ccc(S(=O)(=O)N2CCCC[C@@H]2C(=O)Nc2ccc(C)c(C)c2)cc1`, the EC50 is 2.25 µM.

For the molecule `COc1ccc(-c2csc(NC(=O)[C@H]3CCCCN3S(=O)(=O)c3ccc4c(c3)OCO4)n2)cc1`, the EC50 is 0.778 µM.

Turning to `Cc1ccc(S(=O)(=O)N2CCCC[C@@H]2C(=O)Nc2cccc(Cl)n2)cc1`, the current activation entry is “inactive”.

With `Cc1ccc(S(=O)(=O)N2CCCC[C@@H]2C(=O)Nc2cccc(C(F)(F)F)c2)cc1`, the EC50 was 3.24 µM.

For `Cc1ccc(S(=O)(=O)N2CCCC[C@@H]2C(=O)Nc2ccncc2)cc1`, the current activation result was “inactive”.

In the case of `Cc1ccc(S(=O)(=O)N2CCCC[C@@H]2C(=O)Nc2cccc([N+](=O)[O-])c2)cc1`, the current activation entry is “inactive”.

As to `COc1cccc(NC(=O)[C@H]2CCCCN2S(=O)(=O)c2ccc(C)cc2)c1`, the current activation result was “inactive”.

Turning to `COC(=O)c1cccc(NC(=O)[C@H]2CCCCN2S(=O)(=O)c2ccc(C)cc2)c1`, the current activation result was “inactive”.

Regarding `Cc1ccc(S(=O)(=O)N2CCCC[C@@H]2C(=O)Nc2ccc(C)c(Br)c2)cc1`, the current activation entry was “inactive”.
